Results on 1 compound are retold here after patent US7473690B2, “Tetralin and indane derivatives and uses thereof” (Roche Palo Alto LLC, priority 2004, dated 2009).

Each structure is given as a SMILES string.

The target in test [1] is T1, recombinant human 5-HT2A receptor (Homo sapiens, UniProt P28223).
T1 construct: expressed in transfected cells; membranes)
In words: Radioligand binding, [3H]Ketanserin competition, 5-HT2A. The note with it: [3H]Ketanserin displacement, membranes of CHO-K1 cells, pH 7.4, 32° C.; read-out: pKi for 5-HT2A (converted). How it is done:
(§1) The binding activity of compounds of this invention in vitro was determined as follows. Duplicate determinations of 5-HT6 ligand affinity were made by competing for binding of [^3H]LSD in cell membranes derived from HEK293 cells stably expressing recombinant human 5-HT6 receptor. Duplicate determinations of 5-HT2A ligand affinity were made by competing for binding of [^3H]Ketanserin (3-(2-(4-(4-fluorobenzoyl)piperidinol)ethyl)-2,4(1H,3H)-quinazolinedione) in cell membranes derived from CHO-K1 cells stably expressing recombinant human 5-HT2A receptor. Membranes were prepared from HEK 293 cell lines by the method described by Monsma et al., Molecular Pharmacology, Vol. 43 pp. 320-327 (1993), and from CHO-K1 cell lines as described by Bonhaus et al., Br J Pharmacol. Jun; 115 (4):622-8 (1995).
(§2) For estimation of affinity at the 5-HT6 receptor, all determinations were made in assay buffer containing 50 mM Tris-HCl, 10 mM MgSO4, 0.5 mM EDTA, 1 mM ascorbic acid, pH 7.4 at 37° C., in a 250 microliter reaction volume. […]
(§3) Assay tubes containing [^3H] […] LSD or [^3H]Ketanserin were determined as radioactive counts per minute using Packard TopCount.
(§4) Displacement of [^3H]LSD or [^3H]Ketanserin from the binding sites was quantified by fitting concentration-binding data to a 4-parameter logistic equation: […]

Test [2] addresses T2, recombinant human 5-HT6 receptor (Homo sapiens, UniProt P50406).
T2 construct: expressed in transfected cells; membranes)
As to the kind of experiment: Radioligand binding, [3H]LSD competition, 5-HT6. The note with it: [3H]LSD displacement, membranes of HEK293 cells, pH 7.4, 37° C.; read-out: pKi for 5-HT6 (converted). How it is done:
as §1, §2, §3, §4

T2 sequence (P50406 whole entry): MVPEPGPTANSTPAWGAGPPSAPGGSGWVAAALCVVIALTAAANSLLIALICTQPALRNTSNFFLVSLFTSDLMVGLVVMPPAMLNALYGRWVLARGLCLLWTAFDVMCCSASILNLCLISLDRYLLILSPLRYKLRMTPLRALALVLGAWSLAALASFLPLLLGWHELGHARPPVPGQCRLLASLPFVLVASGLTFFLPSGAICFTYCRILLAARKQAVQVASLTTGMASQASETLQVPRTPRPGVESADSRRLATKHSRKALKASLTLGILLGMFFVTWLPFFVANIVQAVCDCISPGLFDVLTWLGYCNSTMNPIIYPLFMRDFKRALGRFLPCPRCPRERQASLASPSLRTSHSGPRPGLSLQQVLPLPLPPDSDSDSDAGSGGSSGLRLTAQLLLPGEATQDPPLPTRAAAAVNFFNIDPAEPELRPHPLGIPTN
T1 sequence (P28223 whole entry): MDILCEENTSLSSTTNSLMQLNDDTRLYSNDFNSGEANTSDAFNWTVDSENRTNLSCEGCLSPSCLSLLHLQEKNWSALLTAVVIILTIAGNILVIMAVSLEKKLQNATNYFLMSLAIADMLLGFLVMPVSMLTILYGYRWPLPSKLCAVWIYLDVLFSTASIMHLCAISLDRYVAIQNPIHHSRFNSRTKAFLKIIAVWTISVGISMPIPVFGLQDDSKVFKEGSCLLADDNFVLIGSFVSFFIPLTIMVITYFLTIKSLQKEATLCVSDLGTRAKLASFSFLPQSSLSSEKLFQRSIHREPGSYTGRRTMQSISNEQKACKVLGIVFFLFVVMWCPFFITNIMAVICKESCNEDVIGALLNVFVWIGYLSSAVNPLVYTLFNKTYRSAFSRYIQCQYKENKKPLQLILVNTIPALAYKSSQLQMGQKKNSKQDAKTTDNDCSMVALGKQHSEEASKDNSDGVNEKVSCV

With `CN1CCN(C2CCCc3cc(S(=O)(=O)c4ccccc4)ccc32)CC1` (centres unmarked) [Compound 11, 1-(6-Benzenesulfonyl-1,2,3,4-tetrahydro-naphthalen-1-yl)-4-methyl-piperazine], the Ki in test [1] was about 17.4 nM; in test [2], about 0.302 nM.
